One assay deals with Kelch domain of Keap1. The note with it: ITC; ref [79]; cited from earlier work. (In general: Isothermal titration calorimetry measures the heat released or taken up as one component is titrated into another.)
The subject of a further assay is Keap1. The settings on record: cited from earlier work; for competition with full-length Nrf2 for binding to Keap1: compared with 10-mer peptide (LDEETGEFLP), ref [79].
For assay [1], the system named is Kelch domain of mouse Keap1 (residues 324–612). The assay can be described thus: ITC binding of mouse peptides to Kelch domain of Keap1. On the procedure:
The Kelch domain (residues 324–612) of mouse Keap1 was expressed in Escherichia coli BL21 (DE3) grown in minimal M9 medium. The N-terminally His-tagged protein was purified by affinity chromatography using Ni Sepharose™ 6 Fast Flow beads (Amersham Biosciences). The tag was then cleaved by incubation with His-tagged tobacco etch virus (TEV) protease overnight at 25°C. The protein product was purified by passing the mixture through Ni Sepharose™ 6 Fast Flow beads (Amersham Biosciences).
ITC experiments were performed on a VP-ITC system (MicroCal) at 25°C. The Kelch domain was dialyzed against 50 mM phosphate buffer at pH 7, containing 100 mM NaCl and 1 mM DTT. Mouse ProTα (Ala-39 to Asp-54) and Neh2 (Leu-76 to Leu-84) peptides (GenScript) were also dissolved in the same buffer. All samples were filtered and degassed before the ITC experiments. […] Heat changes after saturation were used to account for the heat of dilution. The binding stoichiometries (n), enthalpy changes (ΔH), binding constants (Ka), Gibbs free energy changes (ΔG) and entropy changes (ΔS) were calculated using the titration data.
Supplementary file pone.0027371.s006.tif: Figure S4 Isothermal titration calorimetry (ITC) measurements. […] (Upper) The raw data of two ITC experiments each performed at 25°C. (Lower) The integrated heat changes, corrected for the heat of dilution, and the fitted curve assuming single-site binding. (TIF) Click here for additional data file.

For assay [2], the system named is Nrf2-targeted cytoprotective genes. The settings on record: ref [49], [50]; cited from earlier work. An excerpt: The Keap1-binding motif of ProTα (-NEENGE-) shares a similar sequence with that of the Neh2 ...
Assay [3] deals with Keap1 Kelch (Homo sapiens) (UniProt Q14145). As to the kind of experiment: ITC. The note with it: cited from earlier work.
In assay [4] the target is Keap1 Kelch (Mus musculus) (UniProt Q9Z2X8). The note with it: cited from earlier work.
Assay [5] has the same target. The assay can be described thus: ITC. The note with it: cited from earlier work.
In assay [6] the target is T1, Kelch domain (residues 324–612) of mouse Keap1 (mouse, UniProt Q9Z2X8 324-612).
T1 construct: Kelch domain of Kelch-like ECH-associated protein 1 (Keap1), mouse, residues 324-612; His tag cleaved with TEV protease; also called Kelch-like ECH-associated protein 1; source: Escherichia coli BL21 (DE3) in minimal M9 medium, purified (Ni Sepharose, TEV cleavage, second Ni Sepharose pass); not shown: His tag, N-terminal, cleaved
The assay can be described thus: ITC; VP-ITC (MicroCal), 25°C; 5 µL aliquots of 0.5 mM peptide titrated into 1.4 mL of 0.05 mM Kelch in the cell; 50 mM phosphate pH 7, 100 mM NaCl, 1 mM DTT; single-site fit. The note with it: both partners purified.

Where [7] appears, read: ITC, T = 298 K, pH 7, 50 mM phosphate, 100 mM NaCl, 1 mM DTT.

Where two headings read alike, the source gives them in different places.

T1 sequence (Q9Z2X8 324-612): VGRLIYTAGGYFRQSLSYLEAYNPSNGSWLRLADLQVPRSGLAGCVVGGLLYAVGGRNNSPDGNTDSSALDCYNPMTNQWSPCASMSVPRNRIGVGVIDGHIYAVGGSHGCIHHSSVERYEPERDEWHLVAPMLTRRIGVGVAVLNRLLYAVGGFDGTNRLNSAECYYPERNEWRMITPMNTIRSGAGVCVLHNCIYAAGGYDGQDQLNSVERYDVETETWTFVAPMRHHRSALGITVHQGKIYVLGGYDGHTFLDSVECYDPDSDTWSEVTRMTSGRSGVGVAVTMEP
Keap1 Kelch (Mus musculus), sequence (Q9Z2X8 309-624): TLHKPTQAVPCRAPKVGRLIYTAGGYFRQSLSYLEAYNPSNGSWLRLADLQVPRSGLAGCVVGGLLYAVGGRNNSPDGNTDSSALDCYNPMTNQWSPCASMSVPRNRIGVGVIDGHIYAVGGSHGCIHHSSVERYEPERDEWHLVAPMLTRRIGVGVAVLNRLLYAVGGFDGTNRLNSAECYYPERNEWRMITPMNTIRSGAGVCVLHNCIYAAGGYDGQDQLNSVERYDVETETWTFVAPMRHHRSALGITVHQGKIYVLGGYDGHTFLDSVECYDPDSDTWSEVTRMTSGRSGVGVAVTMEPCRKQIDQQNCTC
Keap1 Kelch (Homo sapiens), sequence (Q14145 321-609): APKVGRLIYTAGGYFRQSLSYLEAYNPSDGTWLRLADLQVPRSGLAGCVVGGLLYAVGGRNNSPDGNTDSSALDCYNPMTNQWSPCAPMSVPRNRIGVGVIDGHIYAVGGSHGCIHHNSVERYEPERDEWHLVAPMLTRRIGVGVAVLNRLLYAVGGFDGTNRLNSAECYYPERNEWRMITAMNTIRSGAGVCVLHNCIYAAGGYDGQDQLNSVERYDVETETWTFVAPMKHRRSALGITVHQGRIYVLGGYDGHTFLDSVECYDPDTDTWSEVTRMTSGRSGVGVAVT

Consider AFFAQLQLDEETGEFL, for which the Kd on Kelch domain of Keap1 was around 20 nM. Besides, in the assay with Keap1, the “competition with full-length Nrf2 for binding to Keap1” value was “could compete with full-length Nrf2 for binding to Keap1 much better than a 10-mer peptide (LDEETGEFLP)”.

As to “AQNEENGEQEADNEVD [16-mer ProTα peptide, Mouse ProTα (Ala-39 to Asp-54) peptide (GenScript)]”, in assay [1] (16-mer ProTα vs Neh2 peptide with the same length, own ITC compared with ref [79]), the “relative binding to Keap1” value is on record as “interacts more weakly with Keap1 compared to the Neh2 peptide with the same length”. In addition, the “Ka (binding constant)” value in assay [1] (ITC (VP-ITC), 25°C (T = 298 K), 50 mM phosphate pH 7, 100 mM NaCl, 1 mM DTT, 0.5 mM peptide titrated into 0.05 mM Kelch, single-site fit) is listed as 2.4 ± 0.1 10^6 M^−1. Also, in assay [1] (setting [7]), the “TΔS (entropy change upon binding)” value was -10.20 kcal/mol and the “ΔG (Gibbs free energy change upon binding)” value is -8.70 ± 0.02 kcal/mol.

On to LQLDEETGEFLPIQ, for which, in the assay on Keap1, the “competition with full-length Nrf2 for binding to Keap1” value is given as “could compete with full-length Nrf2 for binding to Keap1 much better than a 10-mer peptide (LDEETGEFLP)”.

For “MSDAAVDTSSEITTKDLKEKKEVVEEAENGRDAPANGNAQNEENGEQEADNEVDEEEEEGGEEEEEEEEGDGEEEDGDEDEEAEAPTGKRVAEDDEDDDVDTKKQKTEEDD [Full-length ProTα, Prothymosin alpha, full-length mouse ProTα protein, simulated]”, in assay [2], the Nrf2-targeted cytoprotective genes result was “upregulation of Nrf2-targeted cytoprotective genes”. The “competition with Nrf2 for binding to Keap1” value in the assay on Keap1 (ref [49], [50]) is recorded as “can compete with Nrf2 for binding to Keap1”.

Regarding “Nrf2 16-mer peptide 16-mer ETGE peptide (from UniProt Q16236)”, the dissociation constant (Kd) in assay [3] is 20 nM.

For “Nrf2 Neh2 (DLG motif) Neh2 (from UniProt Q60795)”, the Kd in assay [4] is 500 nM.

Take “Nrf2 Neh2 (ETGE motif) Neh2 (from UniProt Q60795)”: in assay [5], the Kd was 8 nM.

B1: 16-mer ProTα peptide (mouse), Ala-39 to Asp-54 (peptide)
peptide: AQNEENGEQEADNEVD
notes: Prothymosin alpha (ProTα), mouse, residues 39-54; also called Prothymosin alpha peptide; source: synthetic peptide; bought: GenScript
In the case of B1, in assay [6], the Ka came to 2.4e+06 ± 0.1 M⁻¹, the dH was -18.9 ± 0.1 kcal/mol and the “stoichiometry N” value turned out to be 1.03.

In general, Kd refers to the concentration at which binding is half-saturated. For orientation: stoichiometry N means the number of molecules, sites or subunits per partner or assembly.
